Experimental data published in patent US20250228865A1, “COMPOUNDS FOR ENHANCING READ THROUGH OF GENES CONTAINING PREMATURE TERMINATION CODONS AND METHODS FOR MAKING AND USING THE SAME” (Sanofi US Services Inc., priority 2022, published 2025).

Assays:
[1] = system: recombinant human CFTR carrying the premature stop codon (PTC) mutation R1162X; assay: CFTR-PTC mutant translation readthrough, Nanoluc tagged CFTR luminescence (R1162X cell line); assay type: cell-based; settings: for CFTR R1162X ACTIVITY Fold 10 μM G-418: fold over 10 μM G-418, in combination with G418; for EC50: in combination with G418, 16HBE cells, read-out: CFTR R1162X ACTIVITY EC50
In short: (§1)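 16HBE cells stably expressing Nanoluc-tagged human CFTR with G542X or R1162X, in medium with 3 μM VX-809, treated 48 h at 37 °C with compound (10-point, 2-fold, top 50 μM final) alone or with 10 μM G418. Live-cell Nanoluc luminescence normalised to a maximally effective G418 (125-250 μM).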

[2] = system: recombinant human CFTR carrying the premature stop codon (PTC) mutation G542X; assay: CFTR-PTC mutant translation readthrough, Nanoluc tagged CFTR luminescence (G542X cell line); assay type: cell-based; settings: in combination with G418, G542X cell line; for CFTR G542X ACTIVITY Fold 10 μM G-418: fold over 10 μM G-418; for EC50: 16HBE cells
In short: as §1

Structure (SMILES) | CFTR R1162X ACTIVITY Fold 10 μM G-418 [1] | EC50 [1] | CFTR G542X ACTIVITY Fold 10 μM G-418 [2] | EC50 [2]
CN(C)CC1CN(c2ncc(OCc3c(Cl)cccc3Cl)cn2)CCO1 (stereo not drawn) | B′ (B′ = ≥5X to <10X) | > 10000 nM | A′ (A′ = ≥10X) | > 10000 nM
CCc1cccc(C(F)(F)F)c1COc1ccc(N2CC(CO)NC2=O)cc1 (stereo not drawn) | A′ (A′ = ≥10X) | 1000 to 10000 nM | A′ (A′ = ≥10X) | < 1000 nM
Cc1cccc(C(F)(F)F)c1COc1ccc(-n2cnc(C(N)=O)n2)cc1 | A′ (A′ = ≥10X) | < 1000 nM | B′ (B′ = ≥5X to <10X) | < 1000 nM
NC(=O)c1ccn(-c2ncc(OCc3c(Cl)cccc3C(F)(F)F)cn2)n1 | A′ (A′ = ≥10X) | < 1000 nM | A′ (A′ = ≥10X) | < 1000 nM
Cc1cccc(C(F)(F)F)c1COc1cnc(N2CCC(C(N)=O)C2)nc1 (stereo not drawn) | A′ (A′ = ≥10X) | 1000 to 10000 nM | A′ (A′ = ≥10X) | < 1000 nM
CNC(=O)C1CCN(c2ncc(OCc3c(Cl)cccc3Cl)cn2)CC1 | A′ (A′ = ≥10X) | 1000 to 10000 nM | A′ (A′ = ≥10X) | 1000 to 10000 nM
Cc1cccc(C(F)(F)F)c1COc1cnc(N2C(=O)CN(Cc3ccccc3)C2=O)nc1 | A′ (A′ = ≥10X) | < 1000 nM | A′ (A′ = ≥10X) | < 1000 nM
Cc1cccc(C(F)(F)F)c1COc1ccc(N2C(=O)CN(C)C2=O)cc1 | A′ (A′ = ≥10X) | 1000 to 10000 nM | A′ (A′ = ≥10X) | < 1000 nM
Cc1cccc(C(F)(F)F)c1COc1cnc(N2CCN(CCOCCO)CC2)nc1 | A′ (A′ = ≥10X) | 1000 to 10000 nM | A′ (A′ = ≥10X) | 1000 to 10000 nM
OCCOCCN1CCN(c2ncc(OCc3c(Cl)cccc3Cl)cn2)CC1 | A′ (A′ = ≥10X) | < 1000 nM | A′ (A′ = ≥10X) | < 1000 nM
O=C1OC(CO)CN1c1ccc(OCc2c(Cl)cccc2OC(F)F)cc1 (stereo not drawn) | B′ (B′ = ≥5X to <10X) | > 10000 nM | C′ (C′ = <5X) | 1000 to 10000 nM
O=C1OC(CO)CN1c1ccc(OCc2c(Cl)cccc2C2CC2)cc1 (stereo not drawn) | A′ (A′ = ≥10X) | 1000 to 10000 nM | A′ (A′ = ≥10X) | 1000 to 10000 nM
COc1cccc(Cl)c1COc1ccc(N2CC(CO)OC2=O)cc1 (stereo not drawn) | C′ (C′ = <5X) | > 10000 nM | C′ (C′ = <5X) | > 10000 nM
O=C1CN(c2ncc(OCc3c(Cl)cccc3Cl)cn2)CCN1CCO | A′ (A′ = ≥10X) | 1000 to 10000 nM | A′ (A′ = ≥10X) | 1000 to 10000 nM
NC(=O)N1CCN(c2ncc(OCc3c(Cl)cccc3Cl)cn2)CC(O)C1 (stereo not drawn) | A′ (A′ = ≥10X) | 1000 to 10000 nM | A′ (A′ = ≥10X) | 1000 to 10000 nM
Cc1cccc(C(F)(F)F)c1COc1cnc(N(C)CCCCO)nc1 | A′ (A′ = ≥10X) | < 1000 nM | A′ (A′ = ≥10X) | < 1000 nM
Cc1cccc(C(F)(F)F)c1COc1ccc(N2C(=O)NC(C)(C)C2=O)cc1 | A′ (A′ = ≥10X) | < 1000 nM | A′ (A′ = ≥10X) | < 1000 nM
Cc1cccc(C(F)(F)F)c1COc1cnc(N2CC(CO)OCC2=O)nc1 (stereo not drawn) | A′ (A′ = ≥10X) | 1000 to 10000 nM | A′ (A′ = ≥10X) | 1000 to 10000 nM

Structure (SMILES) | CFTR R1162X ACTIVITY Fold 10 μM G-418 [1] | EC50 [1] | CFTR G542X ACTIVITY Fold 10 μM G-418 [2] | EC50 [2]
O=CNCC1CCCN(c2ncc(OCc3c(Cl)cccc3Cl)cn2)C1 (stereo not drawn) | B′ (B′ = ≥5X to <10X) | 1000 to 10000 nM | B′ (B′ = ≥5X to <10X) | 1000 to 10000 nM
CC(=O)N[C@H]1CCN(c2ncc(OCc3c(Cl)cccc3Cl)cn2)C1 | A′ (A′ = ≥10X) | 1000 to 10000 nM | A′ (A′ = ≥10X) | 1000 to 10000 nM
CS(=O)(=O)NCC1CN(c2ncc(OCc3c(Cl)cccc3Cl)cn2)CCO1 (stereo not drawn) | B′ (B′ = ≥5X to <10X) | 1000 to 10000 nM | A′ (A′ = ≥10X) | 1000 to 10000 nM
O=C(NCC1CN(c2ncc(OCc3c(Cl)cccc3Cl)cn2)CCO1)C(F)(F)F (stereo not drawn) | B′ (B′ = ≥5X to <10X) | 1000 to 10000 nM | A′ (A′ = ≥10X) | 1000 to 10000 nM
Cc1cccc(C(C)(F)F)c1COc1ccc(-n2cc(CO)nn2)cc1 | B′ (B′ = ≥5X to <10X) | 1000 to 10000 nM | B′ (B′ = ≥5X to <10X) | 1000 to 10000 nM
OCc1ncn(-c2ccc(OCc3c(Cl)cccc3C(F)(F)F)cn2)n1 | A′ (A′ = ≥10X) | < 1000 nM | A′ (A′ = ≥10X) | < 1000 nM
OCc1ncn(-c2ncc(OCc3c(Cl)cccc3C(F)(F)F)cn2)n1 | A′ (A′ = ≥10X) | 1000 to 10000 nM | A′ (A′ = ≥10X) | < 1000 nM
Cc1cccc(C(F)(F)F)c1COc1cnc(-n2cnc(CO)n2)nc1 | A′ (A′ = ≥10X) | 1000 to 10000 nM | A′ (A′ = ≥10X) | < 1000 nM
Cc1cccc(C(F)(F)F)c1COc1ccc(-n2cnc(CO)n2)nc1 | A′ (A′ = ≥10X) | < 1000 nM | A′ (A′ = ≥10X) | < 1000 nM
Cc1cccc(C(F)(F)F)c1COc1cnc(N2CCC(CO)C2)nc1 (stereo not drawn) | A′ (A′ = ≥10X) | < 1000 nM | A′ (A′ = ≥10X) | < 1000 nM
CC1CC(CO)CN1c1ncc(OCc2c(Cl)cccc2Cl)cn1 (stereo not drawn) | A′ (A′ = ≥10X) | 1000 to 10000 nM | A′ (A′ = ≥10X) | 1000 to 10000 nM
Cc1cccc(C(F)(F)F)c1COc1cnc(N2CCC[C@H](O)C2)nc1 | A′ (A′ = ≥10X) | < 1000 nM | A′ (A′ = ≥10X) | < 1000 nM
Cc1cccc(C(F)(F)F)c1COc1cnc(N2CCOC(CN)C2)nc1 (stereo not drawn) | A′ (A′ = ≥10X) | < 1000 nM | A′ (A′ = ≥10X) | < 1000 nM
Cc1cccc(C(F)(F)F)c1COc1cnc(N2CCC(CO)(CO)CC2)nc1 | A′ (A′ = ≥10X) | < 1000 nM | A′ (A′ = ≥10X) | < 1000 nM
NC[C@@H]1CN(c2ncc(OCc3c(Cl)cccc3Cl)cn2)CCO1 | A′ (A′ = ≥10X) | 1000 to 10000 nM | B′ (B′ = ≥5X to <10X) | < 1000 nM
NC[C@H]1CN(c2ncc(OCc3c(Cl)cccc3Cl)cn2)CCO1 | A′ (A′ = ≥10X) | 1000 to 10000 nM | A′ (A′ = ≥10X) | < 1000 nM
COC(=O)c1ncn(-c2ccc(OCc3c(C)cccc3C(F)(F)F)cc2)n1 | A′ (A′ = ≥10X) | 1000 to 10000 nM | A′ (A′ = ≥10X) | < 1000 nM
Clc1cccc(Cl)c1COc1cnc(N2C[C@H]3COC[C@H]3C2)nc1 | A′ (A′ = ≥10X) | 1000 to 10000 nM | A′ (A′ = ≥10X) | 1000 to 10000 nM
